Results taken from US9938292B2 (GUANGDONG ZHONGSHENG PHARMACEUTICAL CO., LTD, priority 2014, dated 2018).

These compounds were tested on Hedgehog signaling pathway (assay: Gli-Luc luciferase reporter gene assay in C3H10T1/2/Gli-Luc cells under Shh-N stimulation). Details: 24 h, luciferase RLU, read-out: biological activity: IC50 of the inhibitory activities of compounds on the hedgehog pathway.
Assay type: cell-based
Method in brief: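 C3H10T1/2 cells stably carrying a Gli-responsive luciferase reporter were stimulated with 30 nM Shh-N conditioned medium plus compound (7-point dilutions, duplicate) for 24 h at 37 °C. Luciferase luminescence read from lysates; IC50 by sigmoidal fit of RLU versus log concentration.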
With CCC(=O)N1[C@H](C)CN(c2ccc(NC(=O)c3cnc4c(-c5ccc(C#N)cc5)cccc4c3C3CC3)cn2)C[C@@H]1C [Embodiment 246] the IC50 was ≤ 0.05 µM.

Same assay, conditions: Mus musculus, C3H 10T1/2, 24 h, luciferase RLU, read-out: biological activity: IC50 of the inhibitory activities of compounds on the hedgehog pathway
In the case of CC(C)(O)c1ccc(N2CCN(c3cnc4c(-c5ccc(C#N)cc5)cccc4c3C3CC3)CC2)nc1 [Embodiment 224], the IC50 is reported as ≤ 0.05 µM. With COc1c(N2CCN(c3cnc(C(C)(C)O)cn3)C(C)C2)cnc2c(-c3ccc(C#N)cc3)cccc12 (stereo not shown) [Embodiment 225] the IC50 was ≤ 0.05 µM. COc1c(N2CCN(c3ccc(C(C)(C)O)cn3)C(C)C2)cnc2c(-c3ccc(C#N)cc3)cccc12 (stereo not shown) [Embodiment 226] was tested, and the IC50 was ≤ 0.05 µM. In the case of COc1c(N2CCC(N3C[C@@H](C)O[C@@H](C)C3)CC2)cnc2c(-c3ccc(C#N)cc3)cccc12 [Embodiment 227, 4-(3-(4-(2,6-dimethylmorpholino)piperidin-1-yl)-4-methoxyquinolin-8-yl) benzonitrile], the IC50 is reported as ≤ 0.05 µM. With COc1c(N2CC(N3C[C@@H](C)O[C@@H](C)C3)C2)cnc2c(-c3ccc(C#N)cc3)cccc12 [Embodiment 228, 4-(3-(3-(2,6-dimethylmorpholino-4-yl)azetidin-1-yl)-4-methoxyquinolin-8-yl) benzonitrile] the IC50 was 0.1 to 0.5 µM. For COc1c(N2CCC(N3C[C@@H](C)O[C@@H](C)C3)C2)cnc2c(-c3ccc(C#N)cc3)cccc12 (stereo partly shown) [Embodiment 229, 4-(3-(3-(2,6-dimethylmorpholino)pyrrolidin-1-yl)-4-methoxyquinolin-8-yl) benzonitrile], the IC50 was 0.1 to 0.5 µM. With COc1c(N2C3CCC2CC(N2C[C@@H](C)O[C@@H](C)C2)C3)cnc2c(-c3ccc(C#N)cc3)cccc12 (stereo partly shown) [Embodiment 230, 4-(3-(3-(2,6-dimethylmorpholino-4-yl)-8-azabicyclo[3.2.1]octan-8-yl)-4-methoxyquinolin-8-yl)benzonitrile] the IC50 was 0.1 to 0.5 µM. With COc1c(N2CCC(O)(c3cc(C)cc(C)n3)CC2)cnc2c(-c3ccc(C#N)cc3)cccc12 [Embodiment 231, 4-(3-(4′-hydroxy-4,6-dimethyl-3′,4′,5′,6′-tetrahydro-2′H-[2,4′]bipyridyl-1′-yl)-4-methoxyquinolin-8-yl) benzonitrile] the IC50 was ≤ 0.05 µM. COc1c(C2CCC(N3C[C@@H](C)O[C@@H](C)C3)CC2)cnc2c(-c3ccc(C#N)cc3)cccc12 (stereo partly shown) [Embodiment 232, 4-(3-(4-(2,6-dimethylmorpholino-4-yl)cyclohexyl)-4-methoxyquinolin-8-yl) benzonitrile] was tested, and the IC50 was 0.1 to 0.5 µM. For COc1c(N2CC[C@@H](N3C[C@@H](C)O[C@@H](C)C3)[C@@H](F)C2)cnc2c(-c3ccc(C#N)cc3)cccc12 [Embodiment 233, 4-(3-(4-(2,6-dimethylmorpholino-4-yl)-3-fluoropiperidin-1-yl)-4-methoxyquinolin-8-yl)benzonitrile], the IC50 was ≤ 0.05 µM. With COc1c(N2CCC(N3CC(C)OC(C)C3=O)CC2)cnc2c(-c3ccc(C#N)cc3)cccc12 (stereo not shown) [Embodiment 235, 4-(3-(4-(2,6-dimethyl-3-oxo-morpholino-4-yl)piperidin-1-yl)-4-methoxyquinolin-8-yl) benzonitrile] the IC50 was ≤ 0.05 µM. For CC(C)(O)c1ccc(N2CCN(c3cnc4c(-c5ccc(C#N)cc5)cccc4c3C3CC3)CC2=O)nc1 [Embodiment 236, 4-(4-cyclopropyl-3-(4-(5-(1-hydroxy-1-methyl-ethyl)pyridin-2-yl)-3-oxo-piperazin-1-yl)quinolin-8-yl)benzonitrile], the IC50 was ≤ 0.05 µM. CC(C)(O)c1ccc(N2CCN(c3cnc4c(-c5ccc(C#N)cc5)cccc4c3C3CC3)CC2(C)O)nc1 (stereo not shown) [Embodiment 237, 4-(4-cyclopropyl-3-(3-hydroxy-4-(5-(1-hydroxy-1-methyl-ethyl)pyridin-2-yl)-3-methylpiperazin-1-yl)quinolin-8-yl)benzonitrile] was tested, and the IC50 was 0.1 to 0.5 µM. For COc1c(N2CCC(O)(c3ccc(C(C)(C)O)cn3)CC2)cnc2c(-c3ccc(C#N)cc3)cccc12 [Embodiment 238, 4-(3-(4-hydroxy-4-(5-(2-hydroxypropan-2-yl)pyridin-2-yl)piperidin-1-yl)-4-methoxyquinolin-8-yl)benzonitrile], the IC50 was ≤ 0.05 µM. C[C@@H]1CN(c2ccc(-c3cnc4c(-c5ccc(C#N)cc5)cccc4c3C3CC3)c(C(=O)O)n2)C[C@H](C)O1 [Embodiment 239, 3-(8-(4-cyanophenyl)-4-cyclopropylquinolin-3-yl)-6-(2,6-dimethylmorpholino-4-yl)pyridin-2-carboxylic acid] was tested, and the IC50 was 0.1 to 0.5 µM. Work on COc1c(C2(O)CCN(c3ccc(C(C)(C)O)cn3)CC2)cnc2c(-c3ccc(C#N)cc3)cccc12 [Embodiment 240, 4-(3-(4-hydroxy-5′-(1-hydroxy-1-methyl-ethyl)-3,4,5,6-tetrahydro-2H-[1,2′]bipyridyl-4-yl)4-methoxyquinolin-8-yl)benzonitrile] yielded an IC50 of 0.1 to 0.5 µM. Compound COc1c(NC(=O)c2ccc(N3C[C@@H](C)O[C@@H](C)C3)nc2)cnc2c(-c3ccc(C#N)cc3)cccc12 [Embodiment 241, N-(8-(4-cyanophenyl)-4-methoxyquinolin-3-yl)-6-(2,6-dimethylmorpholino-4-yl) nicotinamide] has an IC50 of 0.1 to 0.5 µM. With COc1c(C(=O)Nc2ccc(N3C[C@@H](C)O[C@@H](C)C3)cc2)cnc2c(-c3ccc(C#N)cc3)cccc12 [Embodiment 242, 8-(4-cyanophenyl)-N-(4-((2S,6R)-2,6-dimethylmorpholino)phenyl)-4-methoxyquinoline-3-carboxamide] the IC50 was ≤ 0.05 µM. COc1c(C(=O)Nc2ccc(N3C[C@@H](C)O[C@@H](C)C3)nc2)cnc2c(-c3ccc(C#N)cc3)cccc12 [Embodiment 243, 8-(4-cyanophenyl)-N-(6-((2S,6R)-2,6-dimethylmorpholino)pyridin-3-yl)-4-methoxyquinoline-3-carboxamide] was tested, and the IC50 was ≤ 0.05 µM. C[C@@H]1CN(c2ccc(NC(=O)c3cnc4c(-c5ccc(C#N)cc5)cccc4c3C3CC3)cn2)C[C@H](C)O1 [Embodiment 244, 8-(4-cyanophenyl)-4-cyclopropyl-N-(6-((2S,6R)-2,6-dimethylmorpholino)pyridin-3-yl) quinoline-3-carboxamide] was tested, and the IC50 was ≤ 0.05 µM. CCC(=O)N1[C@H](C)CN(c2ccc(NC(=O)c3cnc4c(-c5ccc(C#N)cc5)cccc4c3OC)cn2)C[C@@H]1C [Embodiment 245, 8-(4-cyanophenyl)-N-(6-((3S,5R)-3,5-dimethyl-4-propionylpiperazin-1-yl)pyridin-3-yl)-4-methoxyquinoline-3-carboxamide] was tested, and the IC50 was 0.1 to 0.5 µM. With COc1c(N2CCn3c(nnc3C(F)(F)F)C2)cnc2c(-c3ccc(C#N)cc3)cccc12 [Embodiment 247, 4-(4-methoxy-3-(3-trifluoromethyl-5,6-dihydro-8H-[1,2,4]triazolo[4,3-a]pyrazin-7-yl)quinolin-8-yl)benzonitrile] the IC50 was 0.1 to 0.5 µM. With COc1c(N2CCN(C(=O)C3CC3)CC2)cnc2c(-c3ccc(C#N)cc3)cccc12 [Embodiment 248, 4-(3-(4-cyclopropanecarbonylpiperazin-1-yl)-4-methoxyquinolin-8-yl)benzonitrile] the IC50 was ≤ 0.05 µM. COc1c(N2CCN(S(=O)(=O)C(C)C)CC2)cnc2c(-c3ccc(C#N)cc3)cccc12 [Embodiment 249, 4-(4-methoxy-3-(4-(propane-2-sulfonyl)piperazin-1-yl)-quinolin-8-yl)benzonitrile] was tested, and the IC50 was ≤ 0.05 µM. CCC(=O)N1[C@H](C)CN(c2ccc(-c3nc4c(-c5ccc(C#N)cc5)cccc4[nH]3)cn2)C[C@@H]1C [Embodiment 250, 4-(2-(6-(3,5-dimethyl-4-propionylpiperazin-1-yl)pyridin-3-yl)-1H-benzo[d]imidazol-4-yl)benzonitrile] gave an IC50 of 0.1 to 0.5 µM. For COc1c(-c2ccc(N3CC(C)(C)C(O)C(C)(C)C3)cc2)cnc2c(-c3ccc(C#N)cc3)cccc12 [Embodiment 251], the IC50 was ≤ 0.05 µM. With COc1c(N2CCN(c3ccc(C(C)(C)O)cn3)CC2=O)cnc2c(-c3ccc(C#N)cc3)cccc12 [Embodiment 252, 4-(3-(4-(5-(2-hydroxypropan-2-yl)pyridin-2-yl)-2-oxopiperazin-1-yl-4-methoxyquinolin-8-yl))benzonitrile] the IC50 was 0.1 to 0.5 µM. For COc1c(N2CCN(c3ccc(C(C)(C)O)cn3)C(=O)C2)cnc2c(-c3ccc(C#N)cc3)cccc12 [Embodiment 253, 4-(3-(4-(5-(2-hydroxypropan-2-yl)pyridin-2-yl)-3-oxopiperazin-1-yl-4-methoxyquinolin-8-yl))benzonitrile], the IC50 was 0.1 to 0.5 µM. In the case of CC(C)(O)c1ccc(N2CCN(c3cnc4c(-c5ccc(C#N)cc5)cccc4c3C3CC3)C(=O)C2)nc1 [Embodiment 254, 4-(4-cyclopropyl-3-(4-(5-(2-hydroxypropan-2-yl)pyridin-2-yl)-2-oxopiperazin-1-yl)quinolin-8-yl)benzonitrile], the IC50 is reported as ≤ 0.05 µM. CC(C)(O)c1ccc(N2CC3(C2)CN(c2cnc4c(-c5ccc(C#N)cc5)cccc4c2C2CC2)C3)nc1 [Embodiment 255, 4-(4-cyclopropyl-3-(6-(5-(2-hydroxypropan-2-yl)pyridin-2-yl)-2,6-diazaspiro[3.3]heptan-2-yl)quinolin-8-yl)benzonitrile] gave an IC50 of 0.1 to 0.5 µM. Work on CC(C)(O)c1ccc(N2CCC3(CC2)CCN(c2cnc4c(-c5ccc(C#N)cc5)cccc4c2C2CC2)CC3)nc1 [Embodiment 256, 4-(4-cyclopropyl-3-(9-(5-(2-hydroxypropan-2-yl)pyridin-2-yl)-3,9-diazaspiro[5.5]undecan-3-yl)quinolin-8-yl)benzonitrile] yielded an IC50 of 0.1 to 0.5 µM. With Cc1nc(N2C[C@@H](C)O[C@@H](C)C2)ccc1-c1cnc2c(-c3ccc(C#N)cc3)cccc2c1C1CC1 [Embodiment 257, 4-(4-cyclopropyl-3-(6-((2S,6R)-2,6-dimethylmorpholino)-2-methylpyridin-3-yl)quinolin-8-yl)benzonitrile] the IC50 was ≤ 0.05 µM. Work on CC(C)c1c(-c2ccc(N3C[C@@H](C)O[C@@H](C)C3)nc2)cnc2c(-c3ccc(C#N)cc3)cccc12 [Embodiment 258, 4-(3-(6-((2S,6R)-2,6-dimethylmorpholino)pyridin-3-yl)-4-isopropylquinolin-8-yl) benzonitrile] yielded an IC50 of 0.1 to 0.5 µM.
